Tested on: bladder function
Experiment: Cystometry on anaesthetized naive rats
Format: in vivo
Details: anaesthetized naive female rats, rate of contractions (micturition events/min)
Procedure: The cystometric investigation on naive female rats was carried out by the method of Kimura et al. (Kimura et al., 1996, Int. J. Urol. 3:218-227). The abdomen of anaesthetized, ventilated rats is opened up and the ureter is ligated. The urine is drained from the kidneys. A catheter is inserted into the bladder and fixed. […] After stable starting values are reached, the test substance is administered intravenously. An influence on bladder function manifests itself via suppression of the spontaneous contractions.
In the present example, compound A ((+)-(2R,3R)-1-dimethylamino-3-(3-methoxy-phenyl)-2-methyl-pentan-3-ol; hydrochloride) in the dosage of 0.1 mg/kg intravenous was combined with compound B (oxybutynin) in the dosage of 0.03 mg/kg intravenous and the action of this combination was compared with that of the individual substances.

SMILES | Inhibition of the rate of contractions compared with the pretest (0.03 mg/kg i.v.) [% MPE] | Inhibition of the rate of contractions compared with the pretest (0.1 mg/kg i.v.) [% MPE]
CCN(CC)CC#CCOC(=O)C(O)(c1ccccc1)C1CCCCC1 (centres unmarked) [Compound B, oxybutynin] | 10.7 | 
CC[C@](O)(c1cccc(OC)c1)[C@H](C)CN(C)C.Cl [Compound A, (+)-(2R,3R)-1-dimethylamino-3-(3-methoxy-phenyl)-2-methyl-pentan-3-ol; hydrochloride] |  | 21.7
